{"source": "paper PMC11992618", "about": "“Development of cyclopeptide inhibitors specifically disrupting FXR–coactivator interaction in the intestine as a novel therapeutic strategy for MASH” (Life Metabolism, 2025)", "key": {"FXR-LBD": {"target": "T1, FXR-LBD (Homo sapiens, UniProt Q96RI1)", "T1 construct": "50 μmol/L Biotin-DC646 were incubated with 50 μmol/L purified FXR-LBD", "T1 sequence (Q96RI1 262-486 limits assumed)": "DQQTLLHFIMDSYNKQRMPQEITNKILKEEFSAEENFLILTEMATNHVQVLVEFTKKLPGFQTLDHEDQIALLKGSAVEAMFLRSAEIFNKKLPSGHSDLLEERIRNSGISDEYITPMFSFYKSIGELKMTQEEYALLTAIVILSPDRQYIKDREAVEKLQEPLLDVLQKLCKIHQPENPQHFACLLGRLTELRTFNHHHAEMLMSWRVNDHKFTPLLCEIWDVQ", "experiment": "Co-immunoprecipitation of BIOTIN-DC646 and purified FXR-LBD", "assay_type": "binding", "settings": "BIOTIN-DC646 50 μmol/L with purified FXR-LBD", "experimental": "For the co-immunoprecipitation of Biotin-DC646 and FXR-LBD, 50 μmol/L Biotin-DC646 were incubated with 50 μmol/L purified FXR-LBD at room temperature for 2 h at indicated conditions. These mixtures were then immunoprecipitated with beads which had been incubated with anti-His antibody (12698S, Cell Signaling Technology) at room temperature for 1 h. Immunoblotting was performed using the anti-BIOTIN antibody (sc-101339, Santa Cruz Biotechnology)."}, "PPARγ": {"target": "T2, PPARγ (Homo sapiens, UniProt P37231)", "T2 sequence (P37231 1-505)": "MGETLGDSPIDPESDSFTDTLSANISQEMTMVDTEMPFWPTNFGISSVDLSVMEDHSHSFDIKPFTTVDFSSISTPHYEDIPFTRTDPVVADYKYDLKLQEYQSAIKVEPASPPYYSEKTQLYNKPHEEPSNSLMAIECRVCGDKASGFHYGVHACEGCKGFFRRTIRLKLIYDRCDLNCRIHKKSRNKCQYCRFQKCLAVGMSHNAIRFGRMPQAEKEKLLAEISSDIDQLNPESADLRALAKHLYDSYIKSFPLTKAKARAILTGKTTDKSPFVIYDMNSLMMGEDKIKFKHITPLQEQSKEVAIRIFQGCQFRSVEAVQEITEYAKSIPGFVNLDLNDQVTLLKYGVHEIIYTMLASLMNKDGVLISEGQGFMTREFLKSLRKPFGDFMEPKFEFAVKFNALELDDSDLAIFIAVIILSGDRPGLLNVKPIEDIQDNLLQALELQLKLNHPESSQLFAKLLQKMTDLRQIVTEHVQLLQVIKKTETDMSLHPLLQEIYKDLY", "experiment": "PPARγ cell-based reporter assay", "settings": "10 μmol/L; inhibition of agonist-induced receptor activation", "source_text": "Inhibition% means inhibition percentage of agonist-induced receptor activation."}, "MCD diet-induced MASH [1]": {"system": "MCD diet-induced MASH", "experiment": "MCD diet-induced MASH mice, long-term model", "assay_type": "in vivo, mouse", "settings": "oral, 4 weeks", "experimental": "(§1) For the long-term MASH model, 8- to 10-week-old male C57BL/6 J mice were fed with an MCS diet or MCD diet for 2 weeks, before the MCD models were administered with vehicle or GUDCA (50 mg/kg), OCA (30 mg/kg), and DC646 (10 mg/kg) for 4 weeks. The serum, liver, and intestine were collected 2 h after the final dosing. Male Fxr^△IE mice (8–10 weeks old) were fed with a GAN diet for 20 weeks and administered with vehicle or DC646 (10 mg/kg) from the 12th week for 8 weeks. The serum, liver, and intestine were collected 2 h after the final dosing.\n(§2) The intestine and liver were frozen in liquid nitrogen and stored at −80°C. RNA was extracted, and complementary DNA was synthesized from 1 μg total RNA. RT-qPCR was performed on a Bio-Rad CFX384 Touch detection system (Bio-Rad). The primer sequences for RT-qPCR are shown in Supplementary Table S5. RNA levels were analyzed by 2-^ΔΔCt, normalized to 18S ribosomal RNA and expressed as fold change relative to the control group.\n(§3) Hepatic TG and TC, and plasma ALT and AST levels were measured using commercial kits from Nanjing Jiancheng Bioengineering Institute according to the manufacturer’s instructions. To measure hepatic TG contents, liver tissues (~10 mg) were homogenized in 100 μL 1% TritonX-100 and centrifuged at 3000 rpm for 10 min. Supernatants were collected, and 2 μL samples were incubated with 200 μL reaction buffer at 37°C for 10 min. Hepatic TG or TC levels were read at 510 or 500 nm using a microplate reader (Versamax, Molecular Devices) and normalized using the protein concentration. To measure plasma ALT and AST levels, reaction buffer 1 and reaction buffer 2 were mixed at a ratio of 1:1, before adding 2 μL plasma sample and 200 μL mixed reaction buffer in a 96-well plate. The data were acquired using the kinetic mode with an interval of 30 s and 31 total reads at 340 nm using a microplate reader (Versamax, Molecular Devices).\nTissue specimens were fixed in 10% formalin for 12–24 h before being dehydrated and paraffin-embedded. The sections were stained with H&E. The NAS was calculated as a summary score including individual components of steatosis (0–3), lobular inflammation (0–3), and hepatocyte ballooning (0–2) for each liver section by a blinded liver pathologist, and the results were reviewed by a blinded hepatologist according to a previous protocol. To visualize liver fibrosis, paraffin-embedded tissue samples were stained with Sirius Red to characterize the collagen deposition. To visualize lipid accumulation and inflammation in the liver, frozen liver sections were stained with Oil Red O and F4/80, and images were acquired using a Leica DM6B laser microdissection system. At least three discontinuous liver sections were evaluated for each mouse."}, "MCD diet-induced MASH [2]": {"system": "MCD diet-induced MASH", "experiment": "MCD diet short-term MASH model in WT and Fxr-null mice", "assay_type": "in vivo, mouse", "settings": "oral 10 mg/kg, 2 weeks", "experimental": "For the short-term MASH model, 8- to 10-week-old male C57BL/6 J or Fxr-null mice were fed with an MCD diet, combined with oral administration of vehicle or DC646 (10 mg/kg) for 2 weeks. The serum, liver, and intestine were collected 2 h after the final dosing.\nas §2\nas §3, with “To measure plasma ALT and AST levels, reaction buffer 1 and reaction buffer 2 were mixed at a ratio of 1:1, before adding 2 μL plasma sample and 200 μL mixed reaction buffer in a 96-well plate.” left out\nTissue specimens were fixed in 10% formalin for 12–24 h before being dehydrated and paraffin-embedded. The sections were stained with H&E. The NAS was calculated as a summary score including individual components of steatosis (0–3), lobular inflammation (0–3), and hepatocyte ballooning (0–2) for each liver section by a blinded liver pathologist, and the results were reviewed by a blinded hepatologist according to a previous protocol. […] At least three discontinuous liver sections were evaluated for each mouse."}, "[3]": {"system": "GAN diet-induced MASH in Fxr^△IE mice", "experiment": "GAN diet-fed Fxr^△IE mice", "assay_type": "in vivo, mouse", "settings": "GAN diet 20 weeks, oral 10 mg/kg daily for 8 weeks", "experimental": "as §1\nas §3, with “Supernatants were collected, and 2 μL samples were incubated with 200 μL reaction buffer at 37°C for 10 min.” left out, “To measure plasma ALT and AST levels, reaction buffer 1 and reaction buffer 2 were mixed at a ratio of 1:1, before adding 2 μL plasma sample and 200 μL mixed reaction buffer in a 96-well plate.” left out\nTissue specimens were fixed in 10% formalin for 12–24 h before being dehydrated and paraffin-embedded. […] At least three discontinuous liver sections were evaluated for each mouse."}, "[4]": {"experiment": "Water solubility (co-crystallisation attempts)", "assay_type": "physicochemical", "experimental": "To explore the molecular mechanism underlying DC646-mediated FXR antagonism, we determined the structure of the DC646 by X-ray crystal analysis (Supplementary Fig. S5). We also made efforts to co-crystalize DC646 with hFXRα-LBD. […] As an alternative, the AlphaScreen assay was conducted to investigate the mechanism (Fig. 3a)."}, "[5]": {"settings": "DC646 10 mg/kg, GUDCA 50 mg/kg, OCA 30 mg/kg"}}, "data": [{"smiles": "CC(C)C[C@@H]1NC(=O)[C@@H]2CN(CCO2)c2cccc3c2c(cn3[Si](C(C)C)(C(C)C)C(C)C)C[C@H](NS(=O)(=O)C(F)(F)F)C(=O)OCCCCNC(=O)[C@H](CC(C)C)NC(=O)[C@@H]2CN(CCO2)c2cccc3c2c(cn3[Si](C(C)C)(C(C)C)C(C)C)C[C@H](NS(=O)(=O)C(F)(F)F)C(=O)OCCCCNC1=O", "note": "[DC646, N,N'-((1^2R,1^4S,16^2R,16^4S,4R,13R,19R,28R)-13,28-diisobutyl-5,12,15,20,27,30-hexaoxo-2^1,17^1-bis(triisopropylsilyl)-2^1H,17^1H-6,21-dioxa-11,14,26,29-tetraaza-1(4,2),16(2,4)-dimorpholina-2,17(4,3)-diindolacyclotriacontaphane-4,19-diyl)bis(1,1,1-trifluoromethanesulfonamide)]", "values": [{"measurement": "Binding with FXR-LBD (co-immunoprecipitation)", "setting": "FXR-LBD", "result": "directly bind"}, {"measurement": "inhibition at 10 µM", "setting": "PPARγ", "result": 14, "unit": "%"}, {"measurement": "F4/80 staining, macrophage infiltration in the liver", "setting": "MCD diet-induced MASH [1]; DC646 10 mg/kg", "result": "good efficacy in reducing macrophage infiltration"}, {"measurement": "Hepatic FXR signaling in MASH mice", "setting": "MCD diet-induced MASH [1]; DC646 10 mg/kg", "result": "without affecting"}, {"measurement": "Hepatic triglyceride (TG) levels", "setting": "MCD diet-induced MASH [1]; DC646 10 mg/kg", "result": "markedly reduced"}, {"measurement": "Intestinal FXR signaling in MASH mice", "setting": "MCD diet-induced MASH [1]; DC646 10 mg/kg", "result": "selectively inhibited"}, {"measurement": "NAFLD activity scoring (NAS)", "setting": "MCD diet-induced MASH [1]; DC646 10 mg/kg", "result": "alleviating MASH pathologies"}, {"measurement": "Hepatic mRNA levels of inflammation-related genes", "setting": "MCD diet-induced MASH [1]; DC646 10 mg/kg, GUDCA 50 mg/kg", "result": "notable reduction"}, {"measurement": "Hepatic mRNA levels of lipid metabolism-related genes / hepatic lipid accumulation", "setting": "MCD diet-induced MASH [1]; [5]", "result": "reduce the mRNA levels"}, {"measurement": "Serum alanine aminotransferase (ALT) level", "setting": "MCD diet-induced MASH [1]; [5]", "result": "significantly lowered"}, {"measurement": "H&E and Oil Red O staining, lipid droplets", "setting": "MCD diet-induced MASH [1]; versus vehicle-, GUDCA- and OCA-treated groups", "result": "fewer lipid droplets"}, {"measurement": "Decrease in ALT and antisteatotic effect", "setting": "MCD diet-induced MASH [2]; Fxr-null mice", "result": "abolished"}, {"measurement": "NAS score, steatosis", "setting": "MCD diet-induced MASH [2]; WT mice", "result": "effectively reduced steatosis"}, {"measurement": "mRNA levels of intestinal FXR target genes Shp and Fgf15", "setting": "MCD diet-induced MASH [2]; WT mice", "result": "significantly downregulated"}, {"measurement": "Liver/body weight ratio, serum ALT, serum AST, liver TG, liver TC and NAS score", "setting": "[3]", "result": "did not reduce"}, {"measurement": "mRNA levels of genes in the intestinal FXR signaling", "setting": "[3]", "result": "no difference"}, {"measurement": "Water solubility", "setting": "[4]", "result": "poor water solubility"}]}]}
